# Experimental data as given in PubChem BioAssay AID2060511 (Molecular Pharmacology Branch, DTP, NCI, 2025).
# System: 422866-222-R5-J1-PDC spheroids with HUVEC/MSC, viability
# Experiment: Anticancer human tumor 422866-222-R5-J1-PDC patient-derived pancreatic adenocarcinoma cell line growth inhibition [GQUAD]
# Conditions: for IC50: curve of first compound; for viability, T/C: stronger effect = lower value
# Procedure, shortened: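 Multi-cell-type spheroids of tumor cells with HUVEC and mesenchymal stem cells, treated with drug combinations. Concentrations descend in half-log steps from near clinical Cmax, or from 10 microM where Cmax is unknown; viability read-out.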
# [1] = second compound 0.0316 µM, first compound 0.0316 µM
# [2] = second compound 0.0316 µM, first compound 0.1 µM
# [3] = second compound 0.0316 µM, first compound 0.316 µM
# [4] = second compound 0.0316 µM, first compound 1 µM
# [5] = second compound 0.0316 µM, first compound 3.16 µM
# [6] = second compound 0.0316 µM, first compound 10 µM
# [7] = second compound 0.1 µM, first compound 0.0316 µM
# [8] = second compound 0.1 µM, first compound 0.1 µM
# [9] = second compound 0.1 µM, first compound 0.316 µM
# [10] = second compound 0.1 µM, first compound 1 µM
# [11] = second compound 0.1 µM, first compound 3.16 µM
# [12] = second compound 0.1 µM, first compound 10 µM
# [13] = second compound 0.316 µM, first compound 0.0316 µM
# [14] = second compound 0.316 µM, first compound 0.1 µM
# [15] = second compound 0.316 µM, first compound 0.316 µM
# [16] = second compound 0.316 µM, first compound 1 µM
# [17] = second compound 0.316 µM, first compound 3.16 µM
# [18] = second compound 0.316 µM, first compound 10 µM
# [19] = second compound 1 µM, first compound 0.0316 µM
# [20] = second compound 1 µM, first compound 0.1 µM
# [21] = second compound 1 µM, first compound 0.316 µM
# [22] = second compound 1 µM, first compound 1 µM
# [23] = second compound 1 µM, first compound 3.16 µM
# [24] = second compound 1 µM, first compound 10 µM
# [25] = second compound 3.16 µM, first compound 0.0316 µM
# [26] = second compound 3.16 µM, first compound 0.1 µM
# [27] = second compound 3.16 µM, first compound 0.316 µM
# [28] = second compound 3.16 µM, first compound 1 µM
# [29] = second compound 3.16 µM, first compound 3.16 µM
# [30] = second compound 3.16 µM, first compound 10 µM
# [31] = second compound 10 µM, first compound 0.0316 µM
# [32] = second compound 10 µM, first compound 0.1 µM
# [33] = second compound 10 µM, first compound 0.316 µM
# [34] = second compound 10 µM, first compound 1 µM
# [35] = second compound 10 µM, first compound 3.16 µM
# [36] = second compound 10 µM, first compound 10 µM
# 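Also: spheroids exposed to compounds for seven days before reading.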
# 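For viability, T/C in this document: percent viability relative to DMSO vehicle control taken as 100%.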
smiles,measurement,setting,value
O=c1[nH]cc(F)c(=O)[nH]1 + Cc1[nH]c2ccc(F)cc2c1-c1nc2c3cccnc3c3ncccc3c2[nH]1,IC50,second compound 0.0316 µM,> 10 µM
same,IC50,second compound 0.1 µM,> 10 µM
same,IC50,second compound 0.316 µM,> 10 µM
same,IC50,second compound 1 µM,> 10 µM
same,IC50,second compound 3.16 µM,> 10 µM
same,IC50,second compound 10 µM,> 10 µM
same,"viability, T/C",[1],95%
same,"viability, T/C",[2],101%
same,"viability, T/C",[3],101%
same,"viability, T/C",[4],93.8%
same,"viability, T/C",[5],84.5%
same,"viability, T/C",[6],69.1%
same,"viability, T/C",[7],97.9%
same,"viability, T/C",[8],111%
same,"viability, T/C",[9],105%
same,"viability, T/C",[10],84.2%
same,"viability, T/C",[11],79.9%
same,"viability, T/C",[12],60.5%
same,"viability, T/C",[13],103%
same,"viability, T/C",[14],95.8%
same,"viability, T/C",[15],114%
same,"viability, T/C",[16],73.2%
same,"viability, T/C",[17],82.6%
same,"viability, T/C",[18],74%
same,"viability, T/C",[19],101%
same,"viability, T/C",[20],105%
same,"viability, T/C",[21],101%
same,"viability, T/C",[22],101%
same,"viability, T/C",[23],89.6%
same,"viability, T/C",[24],72.9%
same,"viability, T/C",[25],85.7%
same,"viability, T/C",[26],99.3%
same,"viability, T/C",[27],95.4%
same,"viability, T/C",[28],81.4%
same,"viability, T/C",[29],86.9%
same,"viability, T/C",[30],64%
same,"viability, T/C",[31],74.9%
same,"viability, T/C",[32],79.7%
same,"viability, T/C",[33],85.3%
same,"viability, T/C",[34],72%
same,"viability, T/C",[35],75.5%
same,"viability, T/C",[36],53.3%
CC(=O)O[C@H]1C(=O)[C@@]2(C)[C@H]([C@H](OC(=O)c3ccccc3)[C@]3(O)C[C@H](OC(=O)[C@H](O)[C@@H](NC(=O)c4ccccc4)c4ccccc4)C(C)=C1C3(C)C)[C@]1(OC(C)=O)CO[C@@H]1C[C@@H]2O + CN(C)c1ccc(Nc2c3ccc(NC(=O)CCN4CCCC4)cc3nc3cc(NC(=O)CCN4CCCC4)ccc23)cc1,IC50,second compound 0.0316 µM,> 10 µM
same,IC50,second compound 0.1 µM,> 10 µM
same,IC50,second compound 0.316 µM,> 10 µM
same,IC50,second compound 1 µM,> 10 µM
same,IC50,second compound 3.16 µM,> 10 µM
same,IC50,second compound 10 µM,> 10 µM
same,"viability, T/C",[1],78.2%
same,"viability, T/C",[2],72.8%
same,"viability, T/C",[3],63.9%
same,"viability, T/C",[4],66.5%
same,"viability, T/C",[5],75.6%
same,"viability, T/C",[6],86%
same,"viability, T/C",[7],88%
same,"viability, T/C",[8],60.7%
same,"viability, T/C",[9],65.1%
same,"viability, T/C",[10],67.6%
same,"viability, T/C",[11],74.3%
same,"viability, T/C",[12],79.7%
same,"viability, T/C",[13],87.6%
same,"viability, T/C",[14],63.1%
same,"viability, T/C",[15],51.3%
same,"viability, T/C",[16],72.4%
same,"viability, T/C",[17],77.2%
same,"viability, T/C",[18],81.4%
same,"viability, T/C",[19],59.5%
same,"viability, T/C",[20],60.5%
same,"viability, T/C",[21],74.6%
same,"viability, T/C",[22],65.9%
same,"viability, T/C",[23],71%
same,"viability, T/C",[24],85.6%
same,"viability, T/C",[25],62.9%
same,"viability, T/C",[26],68.9%
same,"viability, T/C",[27],68.1%
same,"viability, T/C",[28],65.2%
same,"viability, T/C",[29],76.3%
same,"viability, T/C",[30],87.6%
same,"viability, T/C",[31],63.8%
same,"viability, T/C",[32],67.1%
same,"viability, T/C",[33],76.5%
same,"viability, T/C",[34],79.9%
same,"viability, T/C",[35],80.3%
same,"viability, T/C",[36],92.4%
C=CC(=O)N1CCN(c2nc(=O)n(-c3c(C)ccnc3C(C)C)c3nc(-c4c(O)cccc4F)c(F)cc23)C(C)C1 (stereo not drawn) + Cc1cnc(CNC(=O)c2c(=O)c3ccc(N4CCCN(C)CC4)nc3n3c2sc2ccccc23)cn1,IC50,second compound 0.0316 µM,< 0.0316 µM
same,IC50,second compound 0.1 µM,< 0.0316 µM
same,IC50,second compound 0.316 µM,< 0.0316 µM
same,IC50,second compound 1 µM,< 0.0316 µM
same,IC50,second compound 3.16 µM,< 0.0316 µM
same,IC50,second compound 10 µM,< 0.0316 µM
same,"viability, T/C",[1],41.2%
same,"viability, T/C",[2],32.1%
same,"viability, T/C",[3],28.1%
same,"viability, T/C",[4],19.9%
same,"viability, T/C",[5],33.4%
same,"viability, T/C",[6],30.6%
same,"viability, T/C",[7],40.4%
same,"viability, T/C",[8],30.4%
same,"viability, T/C",[9],26.7%
same,"viability, T/C",[10],25.7%
same,"viability, T/C",[11],32.6%
same,"viability, T/C",[12],30.6%
same,"viability, T/C",[13],36.8%
same,"viability, T/C",[14],30.4%
same,"viability, T/C",[15],27.2%
same,"viability, T/C",[16],29%
same,"viability, T/C",[17],34%
same,"viability, T/C",[18],33.7%
same,"viability, T/C",[19],29.3%
same,"viability, T/C",[20],28.6%
same,"viability, T/C",[21],30.2%
same,"viability, T/C",[22],28.1%
same,"viability, T/C",[23],35.9%
same,"viability, T/C",[24],37.7%
same,"viability, T/C",[25],32%
same,"viability, T/C",[26],32.4%
same,"viability, T/C",[27],29.8%
same,"viability, T/C",[28],27.9%
same,"viability, T/C",[29],37.3%
same,"viability, T/C",[30],36.4%
same,"viability, T/C",[31],30.5%
same,"viability, T/C",[32],23.3%
same,"viability, T/C",[33],28.9%
same,"viability, T/C",[34],27.8%
same,"viability, T/C",[35],33.5%
same,"viability, T/C",[36],34.2%
C=CCn1c(=O)c2cnc(Nc3ccc(N4CCN(C)CC4)cc3)nc2n1-c1cccc(C(C)(C)O)n1 + Cc1[nH]c2ccc(F)cc2c1-c1nc2c3cccnc3c3ncccc3c2[nH]1,IC50,second compound 0.0316 µM,> 10 µM
same,IC50,second compound 0.1 µM,> 10 µM
same,IC50,second compound 0.316 µM,> 10 µM
same,IC50,second compound 1 µM,> 10 µM
same,IC50,second compound 3.16 µM,> 10 µM
same,IC50,second compound 10 µM,> 10 µM
same,"viability, T/C",[1],103%
same,"viability, T/C",[2],110%
same,"viability, T/C",[3],167%
same,"viability, T/C",[4],125%
same,"viability, T/C",[5],157%
same,"viability, T/C",[6],91.9%
same,"viability, T/C",[7],112%
same,"viability, T/C",[8],101%
same,"viability, T/C",[9],127%
same,"viability, T/C",[10],146%
same,"viability, T/C",[11],183%
same,"viability, T/C",[12],107%
same,"viability, T/C",[13],101%
same,"viability, T/C",[14],127%
same,"viability, T/C",[15],126%
same,"viability, T/C",[16],130%
same,"viability, T/C",[17],202%
same,"viability, T/C",[18],112%
same,"viability, T/C",[19],89.3%
same,"viability, T/C",[20],122%
same,"viability, T/C",[21],120%
same,"viability, T/C",[22],121%
same,"viability, T/C",[23],194%
same,"viability, T/C",[24],122%
same,"viability, T/C",[25],75.5%
same,"viability, T/C",[26],74.5%
same,"viability, T/C",[27],85.2%
same,"viability, T/C",[28],117%
same,"viability, T/C",[29],122%
same,"viability, T/C",[30],76.9%
same,"viability, T/C",[31],70.5%
same,"viability, T/C",[32],51.5%
same,"viability, T/C",[33],85.7%
same,"viability, T/C",[34],68.5%
same,"viability, T/C",[35],105%
same,"viability, T/C",[36],79.3%
